The results in this text go back to US12503471B2, “Triazatricycle compounds for the treatment of autoimmune disease” (Hoffmann-La Roche Inc., priority 2019, dated 2025).

The target of this data set is T1, hERG channel (Homo sapiens, UniProt Q12809).
T1 construct: expressed in transfected cells; host or cells: CHO (Chinese hamster ovary)
In words: hERG channel inhibition assay. In kind it is cell-based. The following applies: whole-cell patch-clamp; for IC50: CHO cells expressing hERG; for IC20: human, CHO cells stably expressing hERG. The protocol:
hERG Channel Inhibition Assay
The hERG K^+ channels were cloned in humans and stably expressed in a CHO (Chinese hamster ovary) cell line. CHOhERG cells were used for patch-clamp (voltage-clamp, whole-cell) experiments. Cells were stimulated by a voltage pattern to activate hERG channels and conduct IKhERG Currents (rapid delayed outward rectifier potassium current of the hERG channel). After the cells were stabilized for a few minutes, the amplitude and kinetics of IKhERG were recorded at a stimulation frequency of 0.1 Hz (6 bpm). Thereafter, the test compound was added to the preparation at increasing concentrations. For each concentration, an attempt was made to reach a steady-state effect, usually, this was achieved within 3-10 min at which time the next highest concentration was applied. The amplitude and kinetics of IKhERG are recorded in each concentration of the drug which were compared to the control values (taken as 100%). (references: Redfern W S, Carlsson L, Davis A S, Lynch W G, MacKenzie I, Palethorpe S, Siegl P K, Strang I, Sullivan A T, Wallis R, Camm A J, Hammond T G. 2003; Relationships between preclinical cardiac electrophysiology, clinical Q T interval prolongation and torsade de pointes for a broad range of drugs: evidence for a provisional safety margin in drug development. Cardiovasc. Res. 58:32-45, Sanguinetti M C, Tristani-Firouzi M. 2006; hERG potassium channels and cardiac arrhythmia. Nature 440:463-469, Webster R, Leishman D, Walker D. 2002; Towards a drug concentration effect relationship for QT prolongation and torsades de pointes. Curr. Opin. Drug Discov. Devel. 5:116-26).

As usually defined, the IC50 is the concentration that gives 50% inhibition. For orientation: IC20 means the point of the concentration-response curve where the effect stands at 20%.

T1 sequence (Q12809 whole entry): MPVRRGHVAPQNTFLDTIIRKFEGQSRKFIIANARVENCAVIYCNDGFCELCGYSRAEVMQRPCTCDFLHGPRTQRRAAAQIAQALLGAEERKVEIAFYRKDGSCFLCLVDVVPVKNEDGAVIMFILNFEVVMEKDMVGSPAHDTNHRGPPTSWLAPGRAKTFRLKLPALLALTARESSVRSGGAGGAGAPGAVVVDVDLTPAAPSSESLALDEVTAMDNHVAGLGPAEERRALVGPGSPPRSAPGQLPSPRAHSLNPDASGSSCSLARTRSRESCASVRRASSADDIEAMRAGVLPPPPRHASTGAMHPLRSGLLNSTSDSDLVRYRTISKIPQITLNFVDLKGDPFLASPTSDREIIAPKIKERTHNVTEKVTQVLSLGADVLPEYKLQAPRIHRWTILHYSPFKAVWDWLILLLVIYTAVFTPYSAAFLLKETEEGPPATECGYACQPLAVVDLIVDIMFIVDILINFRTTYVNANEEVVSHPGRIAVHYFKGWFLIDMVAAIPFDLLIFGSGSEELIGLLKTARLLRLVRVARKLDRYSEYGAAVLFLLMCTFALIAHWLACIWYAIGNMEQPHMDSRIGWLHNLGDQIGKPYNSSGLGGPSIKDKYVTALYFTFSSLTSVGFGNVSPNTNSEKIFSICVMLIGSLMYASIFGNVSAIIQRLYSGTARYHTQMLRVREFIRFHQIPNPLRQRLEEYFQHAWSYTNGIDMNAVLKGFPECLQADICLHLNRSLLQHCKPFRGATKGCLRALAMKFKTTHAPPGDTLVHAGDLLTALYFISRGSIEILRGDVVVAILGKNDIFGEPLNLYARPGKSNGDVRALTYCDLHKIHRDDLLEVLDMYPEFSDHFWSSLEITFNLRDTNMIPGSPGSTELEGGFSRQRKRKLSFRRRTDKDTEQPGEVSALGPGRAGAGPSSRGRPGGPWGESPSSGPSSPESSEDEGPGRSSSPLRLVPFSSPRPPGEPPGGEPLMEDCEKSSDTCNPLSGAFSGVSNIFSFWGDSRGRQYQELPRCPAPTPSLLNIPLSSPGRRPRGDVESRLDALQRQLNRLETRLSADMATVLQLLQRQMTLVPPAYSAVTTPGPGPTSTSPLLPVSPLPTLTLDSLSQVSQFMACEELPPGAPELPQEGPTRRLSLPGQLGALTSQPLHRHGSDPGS

Regarding `C[C@@H]1CN(c2ccc(C#N)c3ncccc23)C[C@@H]2c3ccc(N4CC5CNCC(C4)O5)nc3CN12` [Example 6, 5-[(2S,6R)-6-methyl-11-(9-oxa-3,7-diazabicyclo[3.3.1]nonan-3-yl)-4,7,10-triazatricyclo[7.4.0.02,7]trideca-1(9),10,12-trien-4-yl]quinoline-8-carbonitrile], the IC50 was > 20 µM and the IC20 is > 10 µM.

As for `[2H]c1ccc2c(N3C[C@@H](C)N4Cc5nc(N6CC[C@@](C)(N)C6)ccc5[C@H]4C3)ccc(C#N)c2n1` [Example 7, 5-[(2S,6R)-11-[(3R)-3-amino-3-methyl-pyrrolidin-1-yl]-6-methyl-4,7,10-triazatricyclo[7.4.0.02,7]trideca-1(9),10,12-trien-4-yl]-2-deuterio-quinoline-8-carbonitrile], the IC50 is > 20 µM and the IC20 was > 10 µM.

With `[2H]c1ccc2c(N3C[C@@H](C)N4Cc5nc(N6CC[C@](C)(N)C6)ccc5[C@H]4C3)ccc(C#N)c2n1` [Example 8, 5-[(2S,6R)-11-[(3S)-3-amino-3-methyl-pyrrolidin-1-yl]-6-methyl-4,7,10-triazatricyclo[7.4.0.02,7]trideca-1(9),10,12-trien-4-yl]-2-deuterio-quinoline-8-carbonitrile], the IC50 is > 20 µM and the IC20 came to 5.5 µM.

Consider `[2H]c1ccc2c(N3C[C@@H](C)N4Cc5nc(N6CCC7(CNC7)C6)ccc5[C@H]4C3)ccc(C#N)c2n1` [Example 9, 2-Deuterio-5-[(2S,6R)-11-(2,6-diazaspiro[3.4]octan-6-yl)-6-methyl-4,7,10-triazatricyclo[7.4.0.02,7]trideca-1(9),10,12-trien-4-yl]quinoline-8-carbonitrile], for which the IC50 is > 20 µM and the IC20 is > 10 µM.

In the case of `[2H]c1ccc2c(N3C[C@@H](C)N4Cc5nc(N6C[C@H]7C[C@@H]6CN7)ccc5[C@H]4C3)ccc(C#N)c2n1` [Example 17, 2-Deuterio-5-[(2S,6R)-11-[(1R,4R)-2,5-diazabicyclo[2.2.1]heptan-2-yl]-6-methyl-4,7,10-triazatricyclo[7.4.0.02,7]trideca-1(9),10,12-trien-4-yl]quinoline-8-carbonitrile], the IC50 is > 20 µM and the IC20 was > 10 µM.

Consider `C[C@@H]1CN(c2ccc(C#N)c3ncccc23)C[C@@H]2c3ccc(N4CCCNCC4)nc3CN12` [Example 20, 5-[(2S,6R)-11-(1,4-diazepan-1-yl)-6-methyl-4,7,10-triazatricyclo[7.4.0.02,7]trideca-1(9),10,12-trien-4-yl]quinoline-8-carbonitrile], for which the IC50 is > 20 µM and the IC20 is > 10 µM.
